# Legend:
# [1] = test system: human GLP-1R A316T versus WT; test: Real-time cAMP imaging (cADDis) in mouse islets; type: cell-based; conditions: chow-fed mouse islets; 100 nM; 6 mM glucose; AUC; n = 4; not significant; Fig. 5D-F
# Procedure: To measure cAMP, hGLP1R^A316T/A316T versus ^+/+ control mouse islets, or INS-1 832/3 SNAP/FLAG-hGLP1R^WT versus ^A316T cells cultured on glass-bottom MatTek dishes, were transduced with cADDis (Green Gs cADDis cAMP Kit, Montana Molecular), a baculovirus genetically encoding a fluorescent cAMP in situ biosensor, following the manufacturer’s instructions. Transduced islets were subsequently encased into Matrigel on glass-bottom MatTek dishes 24 hours after transduction, and both islets and cells were imaged at λex = 488 nm in a Nikon Eclipse Ti spinning disk confocal microscope and 20× objective with an ORCA-Flash 4.0 camera (Hamamatsu) for time-lapse recordings with image acquisitions every 6 s in KRBH buffer containing 0.1% (w/v) BSA and 6 mM glucose for 2 min to record the baseline, with 100 nM GLP-1RA subsequently added by manual pipetting, and islets imaged for a further 5 min before addition of 100 μM IBMX + 10 μM forskolin for the final 2 min of the acquisition. Raw green fluorescence intensity traces were extracted from whole islet regions of interest (ROIs) using Fiji, and mean intensities were calculated for each ROI and time point. Responses were plotted relative to average fluorescence intensity per islet during the baseline period before GLP-1RA addition.
# [2] = test system: hGLP1R^A316T/A316T versus hGLP1R^+/+ mice; test: Plasma insulin 10 min into IPGTT, chow-fed mice; type: in vivo, mouse; conditions: chow diet
# Procedure: To measure insulin release during IPGTTs, 10 μl of blood samples were collected via tail venipuncture 10 min after a glucose challenge.
# Plasma was collected into potassium EDTA cuvettes (Microvette CB 300, 16.444.100, Starstedt) and stored on ice before centrifugation at 8,000g for 10 min at 4°C to collect plasma supernatants in fresh Eppendorf tubes kept at −80°C until further analysis.
# [3] = test system: SNAP/FLAG-hGLP1R^A316T versus ^WT; test: Insulin secretion in EndoC-βH3 GLP1R^-/--enriched cells; type: cell-based, human; conditions: 15 mM glucose + 100 nM, 60 min; n = 4; Fig. 6C,D
# Procedure: Purified mouse islets used for insulin secretion assays were treated in 24-well nonadherent plates. Eight islets were used per replicate with three technical replicates per condition. For acute studies, islets were preincubated for 1 hour in KRBH buffer containing 0.1% (w/v) bovine serum albumin (BSA) (10775835001, Roche) and 3 mM glucose before incubation with 11 mM glucose ± 100 nM GLP-1RAs or the GLP-1R antagonist exendin-9 in KRBH buffer in a shaking 37°C water bath (80 rpm) for 1 hour. For overnight studies, preincubation was carried out in RPMI 1640 medium containing FBS, P/S, and 3 mM glucose, followed by treatment with medium supplemented with 11 mM glucose ± GLP-1RAs for 16 hours. […] Insulin secretion assays with the human EndoC-βH3 cell line were performed following 3 weeks of treatment with 4-hydroxytamoxifen as above, followed by transduction with pAV-SNAP/FLAG-hGLP1R^WT or ^A316T adenoviruses, with insulin secretion assessed as previously described ([54]), with the following modifications: After preincubation with 0.5 mM glucose KRBH buffer, cells were stimulated with 15 mM glucose ± exendin-4 for 60 min. Total and secreted insulin samples from islets and cells were stored at −20°C until quantification using an Insulin Ultra-Sensitive HTRF kit (#62IN2PEG, Revvity) in a PHERAstar plate reader (BMG Labtech), according to the manufacturer’s instructions.
Substance,"cAMP response to agonist, A316T/A316T versus +/+ islets [1]","Plasma insulin increase in response to agonist, hGLP1R^A316T/A316T mice ([2]; 10 min into IPGTT, relative to effect in hGLP1R^+/+, Fig. 1L,M)","Plasma insulin levels in response to agonist, hGLP1R^+/+ mice ([2]; 10 min into IPGTT, versus vehicle, Fig. 1L,M)","Agonist-dependent plasma insulin rises (vehicle fold changes), A316T/A316T versus +/+ ([2]; significant at the 6-hour time point, Fig. 1N)","Agonist-stimulated insulin secretory fold increases, A316T versus WT [3]"
exendin-F1,near-significant increase in cAMP,,,,
exendin-4,trend for reduced cAMP,attenuated,increased,reduced,significantly reduced

# Reference: PMC13267291, “In vivo functional profiling and structural characterization of the human GLP1R A316T variant” (Science Advances, 2026)
